From patent publication US20080269251A1, “Substituted Pyrazinone Derivatives as Alpha2C-Adrenoreceptor Antagonists” (priority 2005, published 2008) come the findings set out here.

The target in experiment [1] is T1, human adrenergic-α2A receptor (Homo sapiens, UniProt P08913).
T1 construct: expressed in transfected cells; host or cells: CHO cells, stably transfected; membrane preparation
T1 sequence (P08913 1-465): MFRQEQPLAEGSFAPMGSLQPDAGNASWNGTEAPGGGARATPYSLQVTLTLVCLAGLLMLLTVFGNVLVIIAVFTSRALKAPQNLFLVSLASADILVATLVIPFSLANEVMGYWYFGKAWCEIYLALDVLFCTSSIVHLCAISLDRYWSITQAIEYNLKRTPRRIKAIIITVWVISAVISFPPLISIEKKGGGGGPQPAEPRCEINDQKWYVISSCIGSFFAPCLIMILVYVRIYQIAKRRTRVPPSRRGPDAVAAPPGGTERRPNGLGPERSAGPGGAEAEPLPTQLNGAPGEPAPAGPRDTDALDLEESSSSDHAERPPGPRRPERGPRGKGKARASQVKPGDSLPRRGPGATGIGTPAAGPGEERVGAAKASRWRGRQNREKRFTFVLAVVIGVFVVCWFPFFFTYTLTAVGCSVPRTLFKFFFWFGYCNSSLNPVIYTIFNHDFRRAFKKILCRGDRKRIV
Nature of the experiment: Radioligand binding experiment for hα2A-adrenergic receptor ([3H]raulwolscine). Particulars: [3H]raulwolscine 1 nM, 60 minutes at 25° C.; for IC50: read-out: h-α2A pIC50 (converted). The essentials:
(§1)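 CHO membranes expressing human α2A or α2C receptors were incubated with 1 nM [^3H]raulwolscine for 60 min at 25° C in glycylglycine 25 mM, pH 8.0, then filtered. Nonspecific binding was defined with 1 μM oxymetazoline for α2A and 1 μM spiroxatrine for α2C. pIC50 came from sigmoidal competition curves.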

Experiment [2] addresses T2, human adrenergic-α2C receptor (Homo sapiens, UniProt P18825).
T2 construct: expressed in transfected cells; host or cells: CHO cells, stably transfected; membrane preparation
T2 sequence (P18825 1-462): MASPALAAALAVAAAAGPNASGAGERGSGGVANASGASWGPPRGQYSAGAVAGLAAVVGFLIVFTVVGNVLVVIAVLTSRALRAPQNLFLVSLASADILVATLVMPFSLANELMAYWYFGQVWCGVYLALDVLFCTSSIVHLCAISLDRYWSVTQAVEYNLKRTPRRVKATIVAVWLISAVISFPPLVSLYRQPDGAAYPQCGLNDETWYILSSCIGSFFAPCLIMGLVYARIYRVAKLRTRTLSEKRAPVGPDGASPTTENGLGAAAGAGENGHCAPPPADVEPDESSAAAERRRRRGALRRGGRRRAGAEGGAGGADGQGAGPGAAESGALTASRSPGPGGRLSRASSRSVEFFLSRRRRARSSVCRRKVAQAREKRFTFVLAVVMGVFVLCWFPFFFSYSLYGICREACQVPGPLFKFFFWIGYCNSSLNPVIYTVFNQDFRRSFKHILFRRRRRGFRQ
Nature of the experiment: Radioligand binding experiment for hα2C-adrenoceptor ([3H]raulwolscine). Particulars: [3H]raulwolscine 1 nM, 60 minutes at 25° C.; for IC50: read-out: h-α2C pIC50 (converted). The essentials: as §1

Experiment [3] deals with T3, 5HT-transporter (Homo sapiens, UniProt P31645).
T3 construct: Human platelet membranes (Oceanix Biosciences Corporation, Hanover, Md., USA) were thawed; tissue Oceanix Biosciences Corporation, Hanover, Md., USA; host or cells: human platelet membranes
T3 sequence (P31645 whole entry): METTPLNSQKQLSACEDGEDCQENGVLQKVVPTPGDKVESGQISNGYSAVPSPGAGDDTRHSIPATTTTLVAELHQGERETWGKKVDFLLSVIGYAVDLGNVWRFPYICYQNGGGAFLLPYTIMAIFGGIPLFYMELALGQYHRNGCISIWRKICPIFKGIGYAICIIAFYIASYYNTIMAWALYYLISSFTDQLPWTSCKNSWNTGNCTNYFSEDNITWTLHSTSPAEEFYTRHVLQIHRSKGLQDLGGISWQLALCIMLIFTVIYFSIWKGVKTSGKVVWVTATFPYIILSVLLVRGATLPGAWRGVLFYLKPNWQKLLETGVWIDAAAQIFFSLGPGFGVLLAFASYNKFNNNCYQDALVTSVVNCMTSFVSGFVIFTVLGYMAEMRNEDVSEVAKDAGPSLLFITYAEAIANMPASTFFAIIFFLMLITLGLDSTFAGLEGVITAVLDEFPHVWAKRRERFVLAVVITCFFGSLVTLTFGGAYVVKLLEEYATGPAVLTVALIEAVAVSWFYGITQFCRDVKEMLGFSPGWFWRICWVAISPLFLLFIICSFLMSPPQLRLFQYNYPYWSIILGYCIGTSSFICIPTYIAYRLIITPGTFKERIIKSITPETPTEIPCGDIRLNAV
Nature of the experiment: Binding experiment for the 5HT-transporter ([3H]paroxetine, human platelet membranes). Particulars: [3H]paroxetine 0.5 nM, 60 min at 25° C.; for IC50: read-out: h-5HTT pIC50 (converted). The essentials:
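Competition binding of [3H]paroxetine to human platelet membranes in Tris-HCl 50 mM with 120 mM NaCl and 5 mM KCl; bound radioligand separated by GF/B filtration and counted.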

Turning to `CC(C)(Cc1ccccc1)NC(=O)Cn1ccnc(NC2CCN(Cc3ccc4ccccc4c3)CC2)c1=O` [1-73], the IC50 in experiment [1] was 398 nM; in experiment [2], 39.8 nM; in experiment [3], 158 nM.
In the case of `O=C(NCCCn1ccnc(NC2CCN(Cc3ccc4ccccc4c3)CC2)c1=O)c1ccccc1` [1-74], the values for the IC50 in experiment [1], in experiment [2] and in experiment [3] were 794 nM, 31.6 nM and 126 nM, respectively.
For the compound `O=C(Nc1cccc(-n2ccnc(NC3CCN(Cc4ccc5ccccc5c4)CC3)c2=O)c1)c1ccc(F)cc1` [1-75], the IC50 in experiment [1] was 100 nM; in experiment [2] it was 63.1 nM; in experiment [3], 3.98 nM.
Regarding `O=C(NCc1ccc(-n2ccnc(NC3CCN(Cc4ccc5ccccc5c4)CC3)c2=O)cc1)c1ccc(F)cc1` [1-76], the “h-α2A pIC50” value in experiment [1] amounted to 6.2. The “h-α2C pIC50” value in experiment [2] amounted to 8.1. Moreover, the “h-5HTT pIC50” value in experiment [3] turned out to be 8.2.
On to `O=c1c(NC2CCN(Cc3ccc4ccccc4c3)CC2)nccn1CCCNCCOc1ccccc1` [1-77], for which the IC50 in experiment [1] was 398 nM; in experiment [2], 25.1 nM; in experiment [3], 63.1 nM.
On to `O=c1c(NC2CCN(Cc3ccc4ccccc4c3)CC2)nccn1-c1ccc(CNCC2CCCO2)c(F)c1` (stereo not drawn) [1-80], for which the values for the IC50 in experiment [1], in experiment [2] and in experiment [3] were 251 nM, 2.51 nM and 3.16 nM, respectively.
On to `O=C(Cn1ccnc(NC2CCN(Cc3ccc4ccccc4c3)CC2)c1=O)NCc1ccco1` [1-81], for which the IC50 in experiment [1] was 158 nM; in experiment [2], 31.6 nM; in experiment [3], 631 nM.
Taken in the same sequence, the figures for `O=c1c(NC2CCN(Cc3ccc4ccccc4c3)CC2)nccn1-c1ccc(CNCc2ccco2)cc1` [1-82] were 158 nM, 12.6 nM and 5.01 nM.
As to `Cc1ccc(CNCc2ccc(-n3ccnc(NC4CCN(Cc5ccc6ccccc6c5)CC4)c3=O)cc2)o1.Cl.Cl` [1-83], the “h-α2A pIC50” value in experiment [1] is recorded as 6.7. In addition, the “h-α2C pIC50” value in experiment [2] is recorded as 7.6. For the same compound, the “h-5HTT pIC50” value in experiment [3] turned out to be 8.3.
On to `Cc1ccc(CNCc2ccc(-n3ccnc(NC4CCN(Cc5ccc6ccccc6c5)CC4)c3=O)cc2F)o1` [1-84], for which the IC50 in experiment [1] was 200 nM; in experiment [2] it was 10 nM; in experiment [3] it was 3.16 nM.
On to `Cc1ccc(CN(Cc2ccc(-n3ccnc(NC4CCN(Cc5ccc6ccccc6c5)CC4)c3=O)cc2)Cc2ccc(C)o2)o1` [1-85], for which the results for the IC50 in experiment [1], in experiment [2] and in experiment [3] were 794 nM, 79.4 nM and 31.6 nM, respectively.
Regarding `Cc1cc(CNC(=O)c2ccc(-n3ccnc(NC4CCN(Cc5ccc6ccccc6c5)CC4)c3=O)cc2)no1` [1-86], the figures for the IC50 in experiment [1], in experiment [2] and in experiment [3] were 251 nM, 25.1 nM and 25.1 nM, respectively.
Consider `Cc1cc(CNCc2ccc(-n3ccnc(NC4CCN(Cc5ccc6ccccc6c5)CC4)c3=O)cc2F)no1` [1-87], for which the figures for the IC50 in experiment [1], in experiment [2] and in experiment [3] were 251 nM, 12.6 nM and 12.6 nM, respectively.
In the case of `O=c1c(NC2CCN(Cc3ccc4ccccc4c3)CC2)nccn1-c1ccc(NCCN2CCC(F)CC2)cc1` [1-89], the IC50 in experiment [1] was 200 nM; in experiment [2] it was 12.6 nM; in experiment [3], 15.8 nM.
As to `O=c1c(NC2CCN(Cc3ccc4ccccc4c3)CC2)nccn1-c1ccc(CNCc2ccccn2)cc1` [1-90], the IC50 is 251 nM in experiment [1], 12.6 nM in experiment [2] and 7.94 nM in experiment [3].
On the same counts, the results for `O=c1c(NC2CCN(Cc3ccc4ccccc4c3)CC2)nccn1-c1ccc(CNCCN2CCOCC2)cc1` [1-93] are 316 nM, 20 nM and 15.8 nM.
As for `O=C(Cn1ccnc(NC2CCN(Cc3ccc4ccccc4c3)CC2)c1=O)NCCN1CCOCC1` [1-94], the results for the IC50 in experiment [1], in experiment [2] and in experiment [3] were 631 nM, 50.1 nM and 2000 nM, respectively.
On to `O=C(Cc1ccsc1)NCc1ccc(-n2ccnc(NC3CCN(Cc4ccc5ccccc5c4)CC3)c2=O)cc1` [1-95], for which the IC50 in experiment [1] is 398 nM; in experiment [2] it was 20 nM; in experiment [3], 6.31 nM.
Regarding `Cl.O=C(CCN1CCC(F)CC1)NCc1ccc(-n2ccnc(NC3CCN(Cc4ccc5ccccc5c4)CC3)c2=O)cc1F` [1-96], the “h-α2A pIC50” value in experiment [1] turned out to be 7.1. For the same compound, the “h-α2C pIC50” value in experiment [2] was found to be 8.3. In experiment [3], the “h-5HTT pIC50” value is recorded as 8.0.
`O=C(NCc1ccc(-n2ccnc(NC3CCN(Cc4ccc5ccccc5c4)CC3)c2=O)cc1)c1ccno1` [1-100]: the IC50 was 501 nM in experiment [1], 3.98 nM in experiment [2] and 12.6 nM in experiment [3].
Taken in the same sequence, the figures for `O=C(NCc1ccc(-n2ccnc(NC3CCN(Cc4ccc5ccccc5c4)CC3)c2=O)cc1)c1ccncc1` [1-101] were 501 nM, 25.1 nM and 6.31 nM.
As for `O=C(CNCCCn1ccnc(NC2CCN(Cc3ccc4ccccc4c3)CC2)c1=O)c1coc2ccccc12` [1-103], the IC50 is 631 nM in experiment [1], 31.6 nM in experiment [2] and 158 nM in experiment [3].
On the same counts, the results for `O=C(Cn1ccnc(NC2CCN(Cc3ccc4ccccc4c3)CC2)c1=O)N(Cc1ccccc1)c1ccccc1` [1-104] are 200 nM, 20 nM and 126 nM.
As to `O=C1CCCN1Cc1ccc(-n2ccnc(NC3CCN(Cc4ccc5ccccc5c4)CC3)c2=O)cc1` [2-01], the results for the IC50 in experiment [1], in experiment [2] and in experiment [3] were 251 nM, 31.6 nM and 20 nM, respectively.
Turning to `CN1CCN(Cc2ccc(-n3ccnc(NC4CCN(Cc5ccc6ccccc6c5)CC4)c3=O)cc2)CC1` [2-02], the “h-α2A pIC50” value in experiment [1] came to 6.9. Further, the “h-α2C pIC50” value in experiment [2] was found to be 7.8. Also, in experiment [3], the “h-5HTT pIC50” value is reported as 8.3.
As to `CN1CCN(c2ccc(-n3ccnc(NC4CCN(Cc5ccc6ccccc6c5)CC4)c3=O)cc2)CC1` [2-03], the values for the IC50 in experiment [1], in experiment [2] and in experiment [3] were 100 nM, 25.1 nM and 12.6 nM, respectively.
In the case of `O=C1CN(Cc2ccc(-n3ccnc(NC4CCN(Cc5ccc6ccccc6c5)CC4)c3=O)cc2)CCN1` [2-04], the IC50 in experiment [1] is 126 nM; in experiment [2], 25.1 nM; in experiment [3], 31.6 nM.
With `O=C(Cn1ccnc(NC2CCN(Cc3ccc4ccccc4c3)CC2)c1=O)N1CCN(c2ccccc2)CC1` [2-05], the IC50 is 251 nM in experiment [1], 39.8 nM in experiment [2] and 200 nM in experiment [3].
As for `O=C(Cn1ccnc(NC2CCN(Cc3ccc4ccccc4c3)CC2)c1=O)N1CCN(Cc2ccccc2)CC1` [2-06], the IC50 is 398 nM in experiment [1], 7.94 nM in experiment [2] and 316 nM in experiment [3].
Consider `Cc1ccc(N2CCN(C(=O)Cn3ccnc(NC4CCN(Cc5ccc6ccccc6c5)CC4)c3=O)CC2)cc1C` [2-07], for which the IC50 is 398 nM in experiment [1], 79.4 nM in experiment [2] and 63.1 nM in experiment [3].
Take `O=c1c(NC2CCN(Cc3ccc4ccccc4c3)CC2)nccn1CCN1CCOCC1` [2-09]: the IC50 was 1000 nM in experiment [1], 158 nM in experiment [2] and 501 nM in experiment [3].
With `O=c1c(NC2CCN(Cc3ccc4ccccc4c3)CC2)nccn1-c1ccc(CN2CCCCC2)cc1` [2-11], the values for the IC50 in experiment [1], in experiment [2] and in experiment [3] were 200 nM, 10 nM and 7.94 nM, respectively.
Regarding `O=c1c(NC2CCN(Cc3ccc4ccccc4c3)CC2)nccn1-c1ccc(CN2CCC(F)CC2)cc1` [2-12], in experiment [1], the “h-α2A pIC50” value was determined as 7.3. The “h-α2C pIC50” value in experiment [2] stood at 8.1. The “h-5HTT pIC50” value in experiment [3] was 8.4.
